Laboratory results reported in paper PMC7400437, “Synthesis and Evaluation of the Antibacterial Activities of 13-Substituted Berberine Derivatives” (Antibiotics, 2020).
Read-outs that look alike come from different tables or passages of the source.

Experiments:
[1] = system: BEAS (human airway epithelial cells); assay: Cytotoxic assay on human cells (resazurin); type: cell-based; details: Epithelial cell, 48 h, means +/−SD, read-out: Inhibitory Concentration 50 (IC50) on cell viability, BEAS
Description: (§1) The toxicity of berberine and berberine’s derivatives on human cells was evaluated using resazurin assay as previously described. Human cells used were BEAS (ATCC CRL-9609), Caco2 (ATCC HTB-37) and HepG2 (ATCC HB-8065) corresponding respectively to human airway epithelial cells, intestinal epithelial cells and liver cells. Cells were cultured in Dulbecco’s modified essential medium (DMEM) supplemented with 10% fetal bovine serum (FBS), 1% L-glutamine and 1% antibiotics (Thermo Fisher Scientific, Illkirch-Graffenstaden, France). Cells were routinely grown on 25 cm^2 flasks and maintained in a 5% CO2 incubator at 37 °C. For toxicity assay, cells were detached using trypsin–EDTA solution (Thermo Fisher Scientific), counted using Mallasez counting chamber and seeded into 96-well cell culture plates (Greiner bio-One, Dominique Dutscher, Brumath, France) at approximately 10,000 cells per well. The cells were left to grow for 48–72 h at 37 °C in a 5% CO2 incubator until they reached confluence. Media from wells was then aspirated and cells were treated with 100 µL of culture media containing increasing concentrations of berberine or berberine’s derivatives obtained by serial dilution (from 0 to 50 µM, 1:2 dilution), DMSO (0.5% DMSO final concentration) was used as negative control. After 48 h incubation at 37 °C in a 5% CO2 incubator, cell viability was evaluated using resazurin based in vitro toxicity assay kit (Sigma-Aldrich) following manufacturer’s instructions. Briefly, cell wells were emptied, and cells were treated with 100 µL of resazurin diluted 1:10 in sterile PBS containing calcium and magnesium (PBS^++, pH 7.4). After 4 h incubation at 37 °C, fluorescence intensity (excitation wavelength of 530 nm/emission wavelength of 590 nm) was measured using Synergy Mx microplate reader (Biotek). The fluorescence values were normalized by the controls (DMSO treated cells) and expressed as percent viability. The IC50 values of berberine and berberine’s derivatives on cell viability (i.e., the concentration of derivative causing a reduction of 50% of the cell viability) were calculated using GraphPad® Prism 7 software (San Diego, CA, USA). t-Test and two ways ANOVA analyses were used to address the significant differences between mean values with significance set at p < 0.05.

[2] = system: Caco2 (human intestinal epithelial cells); assay: Cytotoxic assay on human cells (resazurin); type: cell-based; details: for IC50: Homo sapiens, Caco-2, 48 h, read-out: Inhibitory Concentration 50 (IC50) on cell viability, Caco2; for therapeutic index Caco2: IC50 on Caco2 divided by MIC on S. aureus
Description: as §1

[3] = system: HepG2 (human liver cells); assay: Cytotoxic assay on human cells (resazurin); type: cell-based; details: HepG2, 48 h, read-out: Inhibitory Concentration 50 (IC50) on cell viability, HEPG2
Description: as §1

C. albicans = assay: MIC, antifungal activity assay; type: cell-based, Candida albicans (DSM 10697); details: Candida albicans; Table 1 first screening; 35 °C, 24 h; read-out: Minimal Inhibitory Concentration (MIC) C. albicans
[4] = system: selected relevant microorganisms; assay: Antimicrobial activity, overall statement (active/inactive); type: cell-based
P. aeruginosa = assay: MIC, antimicrobial activity assay; type: cell-based, Pseudomonas aeruginosa (ATCC 9027); details: Pseudomonas aeruginosa
B. subtilis = assay: MIC, antimicrobial activity assay; type: cell-based, Bacillus subtilis (ATCC 6633); details: Bacillus subtilis
S. aureus = assay: MIC, antimicrobial activity assay; type: cell-based, Staphylococcus aureus (ATCC 6538P); details: Staphylococcus aureus
E. coli = assay: MIC, antimicrobial activity assay; type: cell-based, Escherichia coli (ATCC 8739); details: Escherichia coli
M. smegmatis = assay: microbe, parasite or virus in culture; type: cell-based, Mycobacterium smegmatis (mc2155, ATCC 700084); details: Mycolicibacterium smegmatis, 72 h, read-out: Minimal Inhibitory Concentration (MIC) M. smegmatis
L. lactis = assay: MIC, antimicrobial activity assay; type: cell-based, Lactococcus lactis (DSM 20481); details: Lactococcus lactis; Table 4, Gram-positive
[5] = system: B. subtilis (Nisin-resistant); assay: MIC, antimicrobial activity assay; type: cell-based, nisin-resistant B. subtilis (DSMZ 347); details: Bacillus subtilis, read-out: MIC B. subtilis (Nisin-resistant)
A. baumannii = assay: MIC, antimicrobial activity assay; type: cell-based, Acinetobacter baumannii (CIP 110431); details: Acinetobacter baumannii; Table 4, Gram-negative
K. pneumonia = assay: MIC, antimicrobial activity assay; type: cell-based, Klebsiella pneumoniae (DSMZ 26371); details: Klebsiella pneumoniae; Table 4, Gram-negative
V. alginolyticus = assay: MIC, antimicrobial activity assay; type: cell-based, Vibrio alginolyticus (DSM 2171); details: Vibrio alginolyticus; Table 4, Gram-negative
B. cereus = assay: MIC, antimicrobial activity assay; type: cell-based; details: Bacillus cereus; Table 4, Gram-positive
S. flexneri = assay: MIC, antimicrobial activity assay; type: cell-based, Shigella flexneri (ATCC 12022); details: Shigella flexneri; Table 4, Gram-negative
A. gandavensis = assay: MIC, antimicrobial activity assay; type: cell-based, Arthrobacter gandavensis (DSM 2447); details: Arthrobacter gandavensis; Table 4, Gram-positive
S. enterica = assay: MIC, antimicrobial activity assay; type: cell-based, Salmonella enterica (CIP 80.39); details: Salmonella enterica; Table 4, Gram-negative
[6] = system: S.aureus (Methicillin-resistant); assay: MIC, antimicrobial activity assay; type: cell-based; details: Staphylococcus aureus, read-out: MIC S.aureus (Methicillin-resistant)
C. rodentium = assay: MIC, antimicrobial activity assay; type: cell-based, Citrobacter rodentium (ATCC 51116); details: Citrobacter rodentium; Table 4, Gram-negative
[7] = system: P. aeruginosa (Quinolone-resistant); assay: MIC, antimicrobial activity assay; type: cell-based; details: Pseudomonas aeruginosa, read-out: MIC P. aeruginosa (Quinolone-resistant)
C. farmer = assay: MIC, antimicrobial activity assay; type: cell-based, Citrobacter farmeri (ATCC 51633); details: Citrobacter farmeri; Table 4, Gram-negative
C. difficile = assay: MIC, antimicrobial activity assay; type: cell-based, Clostridium difficile (DSM 1296); details: Clostridioides difficile; Table 4, Gram-positive; anaerobic
V. diabolicus = assay: MIC, antimicrobial activity assay; type: cell-based; details: Vibrio diabolicus; Table 4, Gram-negative
[8] = system: E. faecalis (Vancomycin-resistant); assay: MIC, antimicrobial activity assay; type: cell-based, vancomycin-resistant Enterococcus faecalis (DSMZ 13591); details: Enterococcus faecalis, read-out: MIC E. faecalis (Vancomycin-resistant)
S. pyogenes = assay: MIC, antimicrobial activity assay; type: cell-based, Streptococcus pyogenes (DSM 20565); details: Streptococcus pyogenes; Table 4, Gram-positive; anaerobic
C. perfringens = assay: microbe, parasite or virus in culture; type: cell-based, Clostridium perfringens (ATCC 13124); details: Clostridium perfringens, read-out: MIC C. perfringens
H. pylori = assay: MIC, antimicrobial activity assay; type: cell-based, Helicobacter pylori (ATCC 43504); details: Helicobacter pylori; Table 4, Gram-negative; microaerobic
[9] = Table 1 first screening, read-out: Minimal Inhibitory Concentration (MIC) P. aeruginosa
[10] = Table 1 first screening, read-out: Minimal Inhibitory Concentration (MIC) B. subtilis
[11] = Table 1 first screening, read-out: Minimal Inhibitory Concentration (MIC) S. aureus
[12] = Table 1 first screening, read-out: Minimal Inhibitory Concentration (MIC) E. coli
[13] = Table 4, Gram-negative, read-out: MIC P. aeruginosa
[14] = Table 4, Gram-positive, read-out: MIC B. subtilis
[15] = Table 4, Gram-positive, read-out: MIC S. aureus
[16] = Table 4, Gram-negative, read-out: MIC E. coli

With `COc1ccc2cc3[n+](cc2c1OC)CCc1cc2c(cc1-3)OCO2` [Berberine] the IC50 [1] was 40.5 ± 5.4 µM, the IC50 [2] was 21.6 ± 2.7 µM and the IC50 [3] was over 50 µM. For the same compound, the MIC (C. albicans) was 100 µM, the “antimicrobial activity (active/inactive)” value [4] was “low to no antimicrobial activity” and the MIC (P. aeruginosa; [9]) was over 100 µM. For the same compound, the MIC (B. subtilis; [10]) was over 100 µM, the MIC (S. aureus; [11]) was over 100 µM and the MIC (E. coli; [12]) was over 100 µM. For the same compound, the MIC (M. smegmatis) was 100 µM.
Work on `COc1ccc2c(Cc3ccc(/C=C/C(=O)NCCc4ccc(S(N)(=O)=O)cc4)cc3)c3[n+](cc2c1OC)CCc1cc2c(cc1-3)OCO2` [Compound 23, (2E)-3-{4-[(Berberin-13-yl)methyl]phenyl}-N-[2-(4-sulfamoylphenyl)ethyl]prop-2-enamide] yielded an MIC (L. lactis) of 6.25 µM, an IC50 [1] of over 50 µM and an IC50 [2] of over 50 µM. For the same compound, the “therapeutic index Caco2” value [2] was 12.40, the IC50 [3] was over 50 µM and the MIC [5] was 25 µM. It also gave an MIC (A. baumannii) of over 100 µM, an MIC (K. pneumonia) of over 100 µM and an MIC (V. alginolyticus) of 6.25 µM. It also gave an MIC (B. cereus) of 12.5 µM, an MIC (S. flexneri) of over 100 µM and an MIC (A. gandavensis) of 50 µM. It also gave an MIC (S. enterica) of over 100 µM, an MIC [6] of 12.5 µM and an MIC (C. albicans) of 100 µM. It also gave an MIC (C. rodentium) of over 100 µM, an MIC [7] of over 100 µM and an MIC (C. farmer) of over 100 µM. The MIC (P. aeruginosa; [9]) was over 100 µM, the MIC (P. aeruginosa; [13]) was over 100 µM and the MIC (B. subtilis; [10]) was 25 µM. The MIC (B. subtilis; [14]) was 25 µM, the MIC (S. aureus; [11]) was 6.25 µM and the MIC (S. aureus; [15]) was 6.25 µM. For the same compound, the MIC (E. coli; [12]) was over 100 µM, the MIC (E. coli; [16]) was over 100 µM and the MIC (C. difficile) was 50 µM. It also gave an MIC (V. diabolicus) of over 100 µM, an MIC [8] of 100 µM and an MIC (M. smegmatis) of 25 µM. The MIC (S. pyogenes) was 6.25 µM, the MIC (C. perfringens) was 50 µM and the MIC (H. pylori) was 6.25 µM.
Work on `COc1ccc2c(CC(=O)c3ccc(OC(=O)c4ccccc4)cc3OC(=O)c3ccccc3)c3[n+](cc2c1OC)CCc1cc2c(cc1-3)OCO2` [Compound 17, 4-[2-(Berberin-13-yl)acetyl]-3-(benzoyloxy)phenyl Benzoate] yielded an MIC (L. lactis) of 3.12 to 6.25 µM, an IC50 [1] of 42.4 ± 9.8 µM and an IC50 [2] of over 50 µM. The “therapeutic index Caco2” value [2] was 8.54, the IC50 [3] was over 50 µM and the MIC [5] was 12.5 to 25 µM. It also gave an MIC (A. baumannii) of over 100 µM, an MIC (K. pneumonia) of over 100 µM and an MIC (V. alginolyticus) of 1.5 to 3.12 µM. It also gave an MIC (B. cereus) of 25 µM, an MIC (S. flexneri) of over 100 µM and an MIC (A. gandavensis) of 12.5 µM. The MIC (S. enterica) was over 100 µM, the MIC [6] was 25 µM and the MIC (C. albicans) was 25 µM. The MIC (C. rodentium) was over 100 µM, the MIC [7] was over 100 µM and the MIC (C. farmer) was over 100 µM. It also gave an MIC (P. aeruginosa; [9]) of over 100 µM, an MIC (P. aeruginosa; [13]) of over 100 µM and an MIC (B. subtilis; [10]) of 12.5 µM. The MIC (B. subtilis; [14]) was 12.5 µM, the MIC (S. aureus; [11]) was 6.25 to 12.5 µM and the MIC (S. aureus; [15]) was 6.25 µM. For the same compound, the MIC (E. coli; [12]) was over 100 µM, the MIC (E. coli; [16]) was over 100 µM and the MIC (C. difficile) was 100 µM. It also gave an MIC (V. diabolicus) of over 100 µM, an MIC [8] of 25 µM and an MIC (M. smegmatis) of 100 µM. It also gave an MIC (S. pyogenes) of 25 µM, an MIC (C. perfringens) of 50 µM and an MIC (H. pylori) of 6.25 to 12.5 µM.
For `COc1ccc2c(Cc3ccc(CI)cc3)c3[n+](cc2c1OC)CCc1cc2c(cc1-3)OCO2` [Compound 8, 13-(4-Iodomethylbenzyl)Berberine], the MIC (L. lactis) was 3.12 to 6.25 µM, the IC50 [1] was 23.4 ± 4.5 µM and the IC50 [2] was over 50 µM. The “therapeutic index Caco2” value [2] was 11.18, the IC50 [3] was over 50 µM and the MIC [5] was 12.5 µM. It also gave an MIC (A. baumannii) of over 100 µM, an MIC (K. pneumonia) of over 100 µM and an MIC (V. alginolyticus) of 6.25 µM. For the same compound, the MIC (B. cereus) was 12.5 µM, the MIC (S. flexneri) was 50 µM and the MIC (A. gandavensis) was 3.12 µM. For the same compound, the MIC (S. enterica) was over 100 µM, the MIC [6] was 12.5 µM and the MIC (C. albicans) was 50 µM. The MIC (C. rodentium) was over 100 µM, the MIC [7] was over 100 µM and the MIC (C. farmer) was over 100 µM. It also gave an MIC (P. aeruginosa; [9]) of over 100 µM, an MIC (P. aeruginosa; [13]) of over 100 µM and an MIC (B. subtilis; [10]) of 6.25 µM. It also gave an MIC (B. subtilis; [14]) of 6.25 µM, an MIC (S. aureus; [11]) of 6.25 µM and an MIC (S. aureus; [15]) of 6.25 µM. It also gave an MIC (E. coli; [12]) of over 100 µM, an MIC (E. coli; [16]) of over 100 µM and an MIC (C. difficile) of 100 µM. For the same compound, the MIC (V. diabolicus) was over 100 µM, the MIC [8] was 50 µM and the MIC (M. smegmatis) was 25 µM. The MIC (S. pyogenes) was 12.5 µM, the MIC (C. perfringens) was 100 µM and the MIC (H. pylori) was 6.25 µM.
